From US4657897A, “N^6 -substituted adenosines for treating pain” (Warner-Lambert Company, priority 1985, dated 1987)

Key:
[1] = test system: rat heart; test: Coronary blood flow (PCS2A), isolated perfused rat heart; set-up: species or system rat (male); conditions: read-out: effect on heart rate (HR)
Procedure: Male rats (400-600 gms) are pretreated with Na heparin 2000 units and anesthetized with Na pentobarbital (50 mg/kg) administered intraperitoneally. Once anesthetized, the rat heart is rapidly excised, the ascending aorta fitted to the aortic perfusion cannula, and secured with a ligature. The coronary arteries are perfused initially at a rate of about 15 ml/min for two to three minutes, afterwhich they are perfused at constant pressure of 70 mm Hg and temperature of 37° C. The electrocardiogram (ECG) is recorded using two platinum electrodes positioned at the base and apex of the left ventricle. A second heart is excised, cannulated, and perfused by the same method outlined above. Both hearts are tested in parallel. The standard physiological salt solution (PSS) is a modified Krebs-Hanseleit bicarbonate buffer of the following composition in mM concentration: NaCl, 127; NaHCO3, 25; dextrose, 5.5; Na Pyruvate, 2.0; KCl, 4.7; MgSO4, 1.1; KH 2PO4, 1.2; CaCl2.2H2 O, 2.5; CaNa2 EDTA, 0.05.
A 30-minute stabilization period is observed before starting the test protocol.
The microprocessor control system is a servo mechanism which permits coronary perfusion pressure (CPP) and drug concentration to be maintained constant independent of changes in coronary flow. The level at which CPP and drug concentration are maintained can be changed by commands communicated through the microprocessor keyboard. Dose-response curves are carried out by perfusing concentrated drug solution (DC) at rates proportional to total coronary flow (CFT). Drug concentrations are increased by proportionate increases in the rate of DC infusion over CFT via the microprocessor keyboard. The proportional flow rates for DC:CFT is about 0.0002:1 at the low end and 0.02:1 at the high end of the dose-response curve. Dose-response curves encompassing at least two log doses are carried out by preparing two DCs with a concentration difference of 1:100. Following the first dose range of two log doses, the DC are switched, proportional pumping rate adjusted, and the dose-responsecurve continued for another two log doses. The standard dose-response curve is carried out in one-half log dose increments starting at a subthreshold dose and ending at a dose which produces near maximal response in activity. Standard reference compounds are tested over the range of 10^-9 to 10^-6 M.
Measurements are for heart rate (HR) and coronary flow (CF). Units are: HR, beats/minute (bpm) and CF, milliliters/minute (ml/min). HR is calculated from the ECG strip chart recording and CF is calculated by recording analog outputs from pumps 1 and 2. Outputs from pump #1=CFT and the output from pump #2=CF for heart B (CFB). CF for heart A (CFA) is calculated (CFT -CFB =CFA).

[2] = Mouse Activity and Screen Test (MAST), screen test failure (ST); assay type: in vivo, mouse (Swiss-Webster, male); conditions: for Inhibition of screen test failure: percent of mice falling off the screen
Procedure: Treatments are administered intraperitoneally one hour prior to testing. […] Compounds are dissolved or suspended in 0.2% Methocel. Control animals are injected with Methocel.
The compounds are identified in the Examples.

[3] = target: T1, adenosine A2 receptor (Rattus norvegicus, UniProt P30543); test: Adenosine Receptor Binding--A2 Receptor Affinity (RBA2), [3H]NECA binding, rat striatal membranes; set-up: species or system rat (mixed sex Sprague-Dawley; male Long-Evans); conditions: 4 nM [3H]NECA, 50 nM N6-cyclopentyladenosine, 25° C., 60 min
T1 construct: 5 mg original tissue weight of rat weight of rat striatal membranes; tissue Pel-Freez (Rogers, Ark.) for the brains; host or cells: rat striatum (Sprague-Dawley; Long-Evans gave essentially identical results), membranes
Procedure: Adenosine Receptor Binding--A2 Receptor Affinity (RBA2)
Brains from 200-500 g mixed sex Sprague-Dawley rats were purchased from Pel-Freez (Rogers, Ark.). […] Brains were thawed and then kept on ice while the striata were dissected out. Striata were disrupted in 10 vol of ice-cold 50 mM Tris.HCl (pH 7.7 at 25° C., pH 8.26 at 5° C.) (Tris) for 30 seconds in a Polytron PT-10 (Brinkmann) at setting 5. The suspension was centrifuged at 50,000 xg for ten minutes, the supernatant discarded, the pellet resuspended in 10 vol ice-cold Tris as above, recentrifuged, resuspended at 1 g/5 ml, and stored in plastic vials at -70° C. […] When needed, tissue was thawed at room temperature, disrupted in a Polytron, and kept on ice until used.
Test compounds were dissolved at 10 mM in dimethylsulfoxide on the same day as the experiment, and diluted in dimethylsulfoxide to 100× the final incubation concentration. […] [^3 H]NECA was diluted to 40 nM in Tris. […] After all additions, the rack of tubes was vortexed, and the tubes were then incubated for 60 min at 25° C. in a shaking water bath. The rack of tubes was vortexed an additional time halfway through the incubation.
Incubations were terminated by filtration through 2.4 cm GF/B filters under reduced pressure. Each tube was filtered as follows: the contents of the tube were poured onto the filter, 4 ml of ice-cold Tris were added to the tube and the contents poured onto the filter, and the filter was washed twice with 4 ml of ice-cold Tris. The filtration was complete in about twelve seconds. Filters were put in scintillation vials, 8 ml of Formula 947 scintillation fluid added, and the vials left overnight, shaken, and counted in a liquid scintillation counter at 40% efficiency.
The IC50 was calculated by weighted nonlinear least squares curve-fitting to the mass-action equation. [formula] where Y is cpm bound
T is cpm total binding without drug
S is cpm specific binding without drug
D is the concentration of drug
K is the IC50 of the drug
Weighting factors were calculated under the assumption that the standard deviation was proportional to the predicted value of Y. Nonspecific binding was treated as a very large (infinite) concentration of drug in the computer analysis.

T1 sequence (P30543 whole entry): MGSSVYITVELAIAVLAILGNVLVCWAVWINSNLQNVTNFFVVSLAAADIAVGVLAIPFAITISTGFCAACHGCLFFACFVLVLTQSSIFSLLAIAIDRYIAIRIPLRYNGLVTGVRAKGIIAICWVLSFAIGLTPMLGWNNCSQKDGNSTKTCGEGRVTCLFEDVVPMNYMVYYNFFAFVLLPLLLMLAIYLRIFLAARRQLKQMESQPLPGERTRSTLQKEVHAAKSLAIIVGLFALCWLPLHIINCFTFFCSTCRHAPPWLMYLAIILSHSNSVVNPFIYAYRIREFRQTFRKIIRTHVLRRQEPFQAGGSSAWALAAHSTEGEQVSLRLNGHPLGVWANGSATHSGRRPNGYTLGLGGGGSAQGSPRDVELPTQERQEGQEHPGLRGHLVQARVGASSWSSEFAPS

OC[C@H]1O[C@@H](n2cnc3c(NCCC(c4ccccc4)c4ccccc4)ncnc32)[C@H](O)[C@@H]1O [Example 2, N^6-(3,3-Diphenylpropyl)adenosine]
activation at 1 µM ([1]; 1 × 10^-6 Molar): -19%
activation at 0.1 µM ([1]; 1 × 10^-7 Molar): -5%
activation at 0.01 µM ([1]; 1 × 10^-8 Molar): -2%
activation at 3 µM ([1]; 3 × 10^-6 Molar): -34%
Inhibition of screen test failure ([2]; 10 mg/kg intraperitoneal): 0%
Inhibition of screen test failure ([2]; 30 mg/kg intraperitoneal): 0%
Inhibition of screen test failure ([2]; 100 mg/kg intraperitoneal): 0%
minimal effective dose ([2]; Mus musculus, ip, lowest dose at which an A rating is achieved, screen test, intraperitoneal, 1 h prior to testing, read-out: MAST ST LAD): > 100 mg/kg
IC50 [3]: 390 nM
